# Source: patent US10701934B2, “Synergistic weed control from applications of penoxsulam and benzobicyclon or clomazone and benzobicyclon” (Dow AgroSciences LLC, priority 2013, dated 2020)
# Columns and labels:
# [1] = test system: Early Watergrass, Echinochloa oryzoides (ECHOR); experiment: In-water application in transplanted rice in the greenhouse, visual weed control of ECHOR; type: in vivo; conditions: 22 days after application, 0-100 scale
# Text: (§1) Weed seeds or nutlets of the desired test plant species were planted in puddled soil (mud) prepared by mixing a shredded, non-sterilized mineral soil (50.5 percent silt, 25.5 percent clay, and 24 percent sand, with a pH of about 7.6 and an organic matter content of about 2.9 percent) and water at a 1:1 volumetric ratio. The prepared mud was dispensed in 365 milliliter (mL) aliquots into 16-ounce (oz.) non-perforated plastic pots with a surface area of 86.59 square centimeters (cm^2) leaving a headspace of 3 centimeters (cm) in each pot. Rice seeds were planted in Sun Gro MetroMix® 306 planting mixture, which typically has a pH of 6.0 to 6.8 and an organic matter content of about 30 percent, in plastic plug trays. Seedlings at the second or third leaf stage of growth were transplanted into 860 mL of mud contained in 32-oz. non-perforated plastic pots with a surface area of 86.59 cm^2 4 days prior to herbicide application. The paddy was created by filling the headspace of the pots with 2.5 to 3 cm of water. When required to ensure good germination and healthy plants, a fungicide treatment and/or other chemical or physical treatment was applied. The plants were grown for 4-22 days in a greenhouse with an approximate 14 hour (h) photoperiod which was maintained at about 29° C. during the day and about 26° C. during the night. Nutrients were added as Osmocote® (17:6:10, N:P:K+minor nutrients) at 2 grams (g) per 16-oz. pot and 4 g per 32-oz. pot. Water was added on a regular basis to maintain the paddy flood, and supplemental lighting was provided with overhead metal halide 1000-Watt lamps as necessary. The plants were employed for testing when they reached the first through fourth true leaf stage. Treatments of penoxsulam and benzobicyclon consisted of penoxsulam and benzobicyclon, applied alone or in combination. Treatments of clomazone and benzobicyclon consisted of clomazone and benzobicyclon, applied alone or in combination. Penoxsulam was formulated as Grasp® SC, clomazone was formulated as Command® 3ME, and benzobicyclon was formulated as 3.5% flowable or as technical grade material. Treatment requirements for each compound or herbicidal component were calculated based upon the rates being tested, the concentration of active ingredient or acid equivalent in the formulation, an application volume of 2 mL per component per pot, and an application area of 86.59 cm^2 per pot. For formulated compounds, a measured amount was placed in an individual 100 or 200 mL glass vial and was dissolved in a volume of 1.25% volume per volume (v/v) Agri-Dex® crop oil concentrate to obtain application solutions. […] The results measured at 22 days following application of the compositions are provided in Table 1 (Penoxsulam and Benzobicyclon) and Table 2 (Clomazone and Benzobicyclon).
# [2] = test system: Purple Nutsedge, Cyperus rotundus (CYPRO); experiment: In-water application in transplanted rice in the greenhouse, visual weed control of CYPRO; type: in vivo; conditions: 22 days after application, 0-100 scale
# Text: as §1, with “Nutrients were added as Osmocote® (17:6:10, N:P:K+minor nutrients) at 2 grams (g) per 16-oz. pot and 4 g per 32-oz. pot. Water was added on a regular basis to maintain the paddy flood, and supplemental lighting was provided with overhead metal halide 1000-Watt lamps as necessary. The plants were employed for testing when they reached the first through fourth true leaf stage. Treatments of penoxsulam and benzobicyclon consisted of penoxsulam and benzobicyclon, applied alone or in combination. Treatments of clomazone and benzobicyclon consisted of clomazone and benzobicyclon, applied alone or in combination. Penoxsulam was formulated as Grasp® SC, clomazone was formulated as Command® 3ME, and benzobicyclon was formulated as 3.5% flowable or as technical grade material.” left out
# [3] = Benzobicyclon 100 g ai/ha alone
compound,measurement,setting,value
COc1cnc(OC)n2nc(NS(=O)(=O)c3c(OCC(F)F)cccc3C(F)(F)F)nc12 [Penoxsulam],% Visual Weed Control 22DAA ECHOR Observed,[1]; Penoxsulam 10 g ai/ha alone,85%
"CC1(C)CON(Cc2ccccc2Cl)C1=O [Clomazone, 2-[(2-chlorophenyl)methyl]-4,4-dimethyl-3-isoxazolidinone]",% Visual Weed Control 22DAA CYPRO Observed,[2]; Clomazone 112 g ai/ha alone,0%
"CS(=O)(=O)c1ccc(C(=O)C2=C(Sc3ccccc3)C3CCC(C3)C2=O)c(Cl)c1 (stereo not shown) [Benzobicyclon, 3-(2-chloro-4-mesylbenzoyl)-2-phenylthiobicyclo[3.2.1]oct-2-en-4-one]",% Visual Weed Control 22DAA ECHOR Observed,[1]; Benzobicyclon 25 g ai/ha alone,0%
same,% Visual Weed Control 22DAA ECHOR Observed,[1]; Benzobicyclon 50 g ai/ha alone,10%
same,% Visual Weed Control 22DAA ECHOR Observed,[1]; [3],15%
same,% Visual Weed Control 22DAA CYPRO Observed,[2]; Benzobicyclon 50 g ai/ha alone,10%
same,% Visual Weed Control 22DAA CYPRO Observed,[2]; [3],30%
